This is an account of results in BindingDB's records for doi:10.1111/j.1747-0285.2012.01416.x (University of California San Diego, 2012).

The target in this assay is Cruzipain (Trypanosoma cruzi, UniProt P25779). As to the kind of experiment: Enzymatic Assay. The source says: Enzymatic inhibition using cruzain.

The structures appear in SMILES notation.

Cruzipain, sequence (P25779 whole entry): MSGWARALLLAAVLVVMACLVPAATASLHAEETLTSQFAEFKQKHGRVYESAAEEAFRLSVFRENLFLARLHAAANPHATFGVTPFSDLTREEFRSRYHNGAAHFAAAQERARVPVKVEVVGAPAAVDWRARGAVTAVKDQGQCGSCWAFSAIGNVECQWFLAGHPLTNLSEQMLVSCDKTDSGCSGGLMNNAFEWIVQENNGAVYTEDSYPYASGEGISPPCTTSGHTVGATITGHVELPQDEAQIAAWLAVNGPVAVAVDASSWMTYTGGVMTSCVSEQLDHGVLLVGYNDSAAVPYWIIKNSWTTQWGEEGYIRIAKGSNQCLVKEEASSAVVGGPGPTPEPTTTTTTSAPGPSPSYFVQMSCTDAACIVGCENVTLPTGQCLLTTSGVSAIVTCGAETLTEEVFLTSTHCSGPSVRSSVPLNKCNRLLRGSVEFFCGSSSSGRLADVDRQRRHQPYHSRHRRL

With `Cn1ccc(=Nc2ccc(NC(=O)c3ccc(N=c4ccn(C)c5ccc([N+](=O)[O-])cc45)cc3)cc2)cc1` [4-[(1-methyl-6-nitro-quinolin-4-ylidene)amino]-N-[4-[(1-methylpyridin-4-ylidene)amino]phenyl]benzamide], 63 µM corresponded to half-maximal inhibition (IC50).

In turn, `CO[C@H]1[C@@H](OC(=O)c2ccc(C)[nH]2)[C@@H](O)C(Oc2ccc3c(O)c(NC(=O)c4ccc(O)c(CC=C(C)C)c4)c(=O)oc3c2Cl)OC1(C)C` (some centres not stated) [NSC227186] came in with an IC50 of 16 µM.

By IC50 is commonly meant the concentration that inhibits the measured activity by half. Low values mean inhibition by little substance, high ones a need for much substance.
